From US9421254B2, “Immunostimulatory combinations of TLR ligands and methods of use” (The United States of America, as represented by the …, priority 2007, dated 2016) come the findings set out here.

“Also recorded” adds a separate entry of the source.

Assay [1] concerns BMDCs. In words: Intracellular IL-12 and CD86 on BMDCs treated in vitro with TLR ligands (flow cytometry). Particulars: for synergy with PolyI:C in IL-12 production: TLR2 ligand combined with PolyI:C; for inducing IL-12 production from DCs / upregulation of CD86 expression: TLR4 ligand alone; for inducing IL-12 production from DCs: relative to MALP-2+PolyI:C and PolyI:C+CpG; for upregulation of CD86 expression: relative to PolyI:C, FIG. 9B. In general terms: Flow cytometry measures light scatter and fluorescence of single cells or particles in a stream.

Assay [2] concerns BMDCs. In words: Secreted cytokines/chemokines from BMDCs treated in vitro with TLR ligands (multiplex). The note with it: FIG. 3D. It is filed as cell-based, mouse.
The subject of assay [3] is popliteal LN MHC class II+CD11c+ DCs. In words: DC activation in popliteal LNs after footpad immunization with TLR ligands. Format: in vivo, mice. Particulars: FIG. 5D. The method, then: Mice were immunized in the footpads with MALP-2, PolyI:C and CpG singly or pairwise. Paired popliteal LN cells were isolated 36 hours later for assay by flow cytometry. […] Panel (D) is a graph showing CD86 expression on DCs.
If this hypothesis were true, it may be expected that use of synergistic combinations of TLRs as adjuvant would result in similar activation of DCs in vivo. To test this hypothesis, DCs were isolated from popliteal LNs following footpad immunization with TLR ligands and examined ex vivo. […] Therefore, the interplay of TLRs in activating DCs in vivo is nonrandom and mediated through potentiating MyD88-dependent cytokines that could account for the activation of specific T cells.

The subject of the next assay is purified T cells. The experiment in a line: Purified T cells cultured with recombinant cytokines/chemokines (CD69). Format: cell-based, mouse. The note with it: added to MyD88-dependent cytokines; FIG. 12B. The method, then: Panel (A) is a graph showing the results when BMDC pretreated with MALP-2+PolyI:C were cultured with purified T cells in the presence of neutralizing antibodies against cytokines as indicated. CD69+ T cells were measured 24 hours later. Panel (B) is a graph showing the results when purified T cells were culture in the presence of IL-12 (25 ng/ml), TNFa (10 ng/ml), MIP-1a (50 ng/ml) and IP-10 (25 ng/ml) singly or in combinations as indicated. CD69+CD8+ T cells were measured after 24 hours of treatment.
As there are several MyD88-dependent inflammatory cytokines that are produced downstream of the JNK/c-Jun pathway, blocking one of these cytokines may not be expected to abolish the synergy effect.

Consider Lipoteichoic acids [LTA], for which the “synergy with PolyI:C in IL-12 production” value in the assay with BMDCs [1] (FIG. 9A) is “could also act synergistically and did”.
As for “macrophage activating lipoprotein (MALP-2)”, the “further increase in IP-10 production compared to PolyI:C alone” value with BMDCs [2] (ligand added to PolyI:C) is “did not result in a further increase”. Besides, the “synergy with PolyI:C in IL-12 production” value in the assay with BMDCs [1] (FIG. 9A) is given as “did”. The “further increase in CD86 expression compared to PolyI:C alone” value in the assay with BMDCs [1] (ligand added to PolyI:C, FIG. 3C) was “did not result in a further increase”. In assay [3], the “increase in CD86 by LN DCs when ligand included with PolyI:C” value was “no significant increases”.
Regarding “IP-10: Recombinant IP-10 protein purchased from Peprotech”, the “enhancement of the CD69 response already induced by the MyD88-dependent cytokines” value in the assay with purified T cells is reported as “did not significantly enhance”.
Consider `CCCCCCCCCCCC(=O)CC(=O)N[C@H](COCC[C@@H](CCCCCCC)OC(=O)CCCCCCCCCCC)COP(=O)(O)OCCNC(=O)NCCOP(=O)(O)OC[C@@H](COCC[C@@H](CCCCCCC)OC(=O)CCCCCCCCCCC)NC(=O)CC(=O)CCCCCCCCCCC` [E6020], for which, in the assay on BMDCs [1], the “inducing IL-12 production from DCs” value is “equivalent” and the “upregulation of CD86 expression” value is recorded as “efficacy equivalent to PolyI:C”.
For “polyinosine-polycytidylic acid [PolyI:C]”, in the assay on BMDCs [2] (ligand alone), the “IP-10 production by DCs” value is reported as “produce IP-10”. Besides, the “IL-12 production on addition to the TLR4 stimulation” value in the assay on BMDCs [1] (FIG. 9A) is on record as “did not further enhance”. Also, the “CD86 expression on DCs” value in the assay on BMDCs [1] (ligand alone, FIG. 3C) was “upregulate CD86 expression”. Besides, the “expression of CD86 by LN DCs” value in assay [3] (ligand alone) is “upregulated”.
As to PAM3CSK4, the “synergy with PolyI:C in IL-12 production” value in the assay on BMDCs [1] (FIG. 9A) is given as “could not; also recorded: did not synergize”.
For lipopolysaccharide [LPS], in the assay on BMDCs [1], the “inducing IL-12 production from DCs” value is recorded as “equivalent” and the “upregulation of CD86 expression” value is given as “efficacy equivalent to PolyI:C”.
Taken in the same sequence, the figures for monophosphoryl lipid A [MPL] were “equivalent” and “efficacy equivalent to PolyI:C”.
